Experiment: wn = mass fraction of the nth substance listed
Details: Liquid, Vibrating tube method

NCCO [2-aminoethan-1-ol] + O
mass density [kg/m3]
Details	w1 = 0.1001	w1 = 0.2	w1 = 0.3005	w1 = 0.4
373.15 K, 120000 kPa	1009.6	1009.6	1011.1	1012.9
393.15 K, 100 kPa	945.2	946.5	948.4	950
393.15 K, 500 kPa	945.6	946.9	948.8	950.4
393.15 K, 1000 kPa	945.8	947	948.9	950.6
393.15 K, 2000 kPa	946.3	947.5	949.4	951.1
393.15 K, 5000 kPa	947.8	949	950.9	952.5
393.15 K, 10000 kPa	950.3	951.5	953.3	955
393.15 K, 15000 kPa	952.7	953.8	955.7	957.3
393.15 K, 20000 kPa	955.2	956.2	958.1	959.7
393.15 K, 30000 kPa	959.8	960.7	962.6	964.3
393.15 K, 40000 kPa	964.4	965.2	967	968.7
393.15 K, 50000 kPa	968.7	969.4	971.1	972.8
393.15 K, 60000 kPa	973	973.6	975.3	977
393.15 K, 70000 kPa	977.3	977.8	979.5	981.1
393.15 K, 80000 kPa	981.3	981.6	983.2	985
393.15 K, 90000 kPa	985.2	985.6	987.1	988.8
393.15 K, 100000 kPa	989.1	989.4	990.9	992.5
393.15 K, 110000 kPa	993	993	994.6	996.2
393.15 K, 120000 kPa	996.7	996.7	998.2	999.7

From the NIST ThermoML archive (doi:10.1016/j.jct.2016.03.021)
